Reference: ChEMBL document CHEMBL4680348, “1,2,4-Thiadiazole acyclic nucleoside phosphonates as inhibitors of cysteine dependent enzymes cathepsin K and GSK-3β” (Bioorg Med Chem, 2021)

Experiments:
[1] = tested on: SH-SY5Y; assay: Cytotoxicity against human SH-SY5Y cells assessed as cell viability at 100 uM incubated for 72 hrs by CellTiter-Glo luminescence based assay; assay type: functional; settings: read-out: Activity
[2] = Cytotoxicity against human NHDF cells assessed as cell viability at 10 uM incubated for 72 hrs by CellTiter-Glo luminescence based assay; settings: read-out: Activity
[3] = biological target: T1, Cathepsin K (Homo sapiens) (UniProt P43235); assay: Inhibition of recombinant human Cathepsin K expressed in Pichia pastoris X-33 assessed as residual activity at 10 uM using Z-Gly-Pro-Arg-AMC as substrate preincubated for 10 mins followed by substrate addition measured after 30 mins by fluorescence based microplate reader assay; settings: time 40.0 min
T1 sequence (whole entry): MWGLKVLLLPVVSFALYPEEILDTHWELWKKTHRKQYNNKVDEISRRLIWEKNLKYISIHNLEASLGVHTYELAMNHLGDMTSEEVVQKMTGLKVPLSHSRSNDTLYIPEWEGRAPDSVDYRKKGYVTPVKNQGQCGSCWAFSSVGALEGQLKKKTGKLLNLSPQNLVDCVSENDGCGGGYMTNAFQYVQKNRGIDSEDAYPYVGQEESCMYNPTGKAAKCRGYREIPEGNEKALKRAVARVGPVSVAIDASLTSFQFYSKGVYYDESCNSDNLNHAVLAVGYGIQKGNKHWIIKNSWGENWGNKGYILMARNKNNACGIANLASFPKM

[4] = biological target: Glycogen synthase kinase-3 beta (Homo sapiens, UniProt P49841); assay: Inhibition of human recombinant GSK3beta using GSK3 peptide as substrate preincubated for 15 mins followed by ATP addition and measured after 90 mins by ADP-Glo kinase assay
Glycogen synthase kinase-3 beta, sequence (P49841 whole entry): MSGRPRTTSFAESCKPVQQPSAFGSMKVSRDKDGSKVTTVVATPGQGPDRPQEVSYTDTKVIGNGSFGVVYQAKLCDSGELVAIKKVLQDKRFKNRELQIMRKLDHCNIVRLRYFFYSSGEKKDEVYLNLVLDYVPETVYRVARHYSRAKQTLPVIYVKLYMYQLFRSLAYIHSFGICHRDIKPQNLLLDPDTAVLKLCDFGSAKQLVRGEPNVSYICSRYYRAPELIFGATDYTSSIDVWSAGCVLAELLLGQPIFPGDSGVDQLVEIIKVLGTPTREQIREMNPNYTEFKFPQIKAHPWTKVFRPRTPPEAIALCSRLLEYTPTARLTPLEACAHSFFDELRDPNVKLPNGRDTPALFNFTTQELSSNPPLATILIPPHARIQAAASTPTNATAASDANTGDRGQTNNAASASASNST

[5] = tested on: HepG2; assay: Cytotoxicity against human HepG2 cells assessed as cell viability at 10 uM incubated for 72 hrs by CellTiter-Glo luminescence based assay; assay type: functional; settings: read-out: Activity
[6] = tested on: HeLa S3; assay: Cytotoxicity against human HeLa S3 cells assessed as cell viability at 100 uM incubated for 72 hrs by CellTiter-Glo luminescence based assay; assay type: functional; settings: read-out: Activity
[7] = tested on: HL-60; assay: Cytotoxicity against human HL-60 cells assessed as cell viability at 100 uM incubated for 72 hrs by CellTiter-Glo luminescence based assay; assay type: functional; settings: read-out: Activity
[8] = Cytotoxicity against human NHDF cells assessed as cell viability at 100 uM incubated for 72 hrs by CellTiter-Glo luminescence based assay; settings: read-out: Activity
[9] = tested on: HL-60; assay: Cytotoxicity against human HL-60 cells assessed as cell viability at 10 uM incubated for 72 hrs by CellTiter-Glo luminescence based assay; assay type: functional; settings: read-out: Activity
[10] = tested on: HepG2; assay: Cytotoxicity against human HepG2 cells assessed as cell viability at 100 uM incubated for 72 hrs by CellTiter-Glo luminescence based assay; assay type: functional; settings: read-out: Activity
[11] = tested on: CCRF-CEM; assay: Cytotoxicity against human CCRF-CEM cells assessed as cell viability at 100 uM incubated for 72 hrs by CellTiter-Glo luminescence based assay; assay type: functional; settings: read-out: Activity
[12] = tested on: HeLa S3; assay: Cytotoxicity against human HeLa S3 cells assessed as cell viability at 10 uM incubated for 72 hrs by CellTiter-Glo luminescence based assay; assay type: functional; settings: read-out: Activity
[13] = tested on: CCRF-CEM; assay: Cytotoxicity against human CCRF-CEM cells assessed as cell viability at 10 uM incubated for 72 hrs by CellTiter-Glo luminescence based assay; assay type: functional; settings: read-out: Activity
[14] = tested on: SH-SY5Y; assay: Cytotoxicity against human SH-SY5Y cells assessed as cell viability at 10 uM incubated for 72 hrs by CellTiter-Glo luminescence based assay; assay type: functional; settings: read-out: Activity

Structure (SMILES)	viability at 100 µM [1] [%]	viability at 72 h, 10 µM [2] [%]	Activity [3] [%]	IC50 [4] [µM]	viability at 10 µM [5] [%]	viability at 100 µM [6] [%]	viability at 100 µM [7] [%]	viability at 72 h, 100 µM [8] [%]	viability at 10 µM [9] [%]	viability at 100 µM [10] [%]	viability at 100 µM [11] [%]	viability at 10 µM [12] [%]	viability at 10 µM [13] [%]	viability at 10 µM [14] [%]
O=C(Nc1nc(=O)n(CCOCP(=O)(O)O)s1)c1ccccc1	105	103	90.3	> 10	100	101	113	102	102	100	100	101	98	104
CN(C)/C=N/c1nc(=O)[nH]s1	75	105	67	> 10	97	112	105	107	102	85	84	97	122	100
Nc1nc(OCCOCP(=O)(O)O)ns1	99	105	90	> 10	97	102	100	96	103	93	112	101	113	101
Cc1cnc(-c2cnc(NCCNc3ccc(C#N)cn3)nc2-c2ccc(Cl)cc2Cl)[nH]1 [LADUVIGLUSIB]	–	53	–	–	86	–	–	–	119	–	–	67	28	77
O=C(Nc1nc(=O)n(C[C@@H](CO)OCP(=O)(O)O)s1)OCC1c2ccccc2-c2ccccc21	93	98	85.5	> 10	106	99	100	95	93	88	119	98	88	99
CC(C)OP(=O)(COCCn1sc(NC(=O)c2ccccc2)nc1=O)OC(C)C	101	103	80.6	> 10	103	100	115	101	104	101	94	101	100	104
O=c1sn(-c2cccc3ccccc23)c(=O)n1Cc1ccccc1 [TIDEGLUSIB]	–	57	–	–	92	–	–	–	34	–	–	69	30	80
CC(C)OP(=O)(CO[C@H](CO)Cn1sc(NC(=O)c2ccccc2)nc1=O)OC(C)C	97	103	92.9	> 10	109	105	118	104	106	99	97	97	86	100
